Assay results reported in patent publication US4482553A, “Benzothienylglycyl cephalosporin derivatives” (priority 1983, dated 1984).
Like-named read-outs stand apart in the source and are kept apart here.

Tests used:
Assay type in all cases: cell-based
[1] = system: Staph. epi; assay: standard in vitro agar dilution MIC (Table I), Staph. epi
[2] = system: Strep. A; assay: standard in vitro agar dilution MIC (Table I), Strep. A
[3] = system: Strep. PN; assay: standard in vitro agar dilution MIC (Table I), Strep. PN; details: strain PARK
[4] = system: H. influ.; assay: standard in vitro agar dilution MIC (Table I), H. influ.
Excerpt: (§1) The antibacterial activity of several compounds of the invention has been determined in standard in vitro agar dilution assays against a variety of gram positive and gram negative microorganisms. The following Tables present typical minimum inhibitory concentrations (MIC's) in μg/ml for several compounds of the invention when evaluated against the indicated microorganisms. MIC's for several known compounds are also presented for comparison.

[5] = system: Klebsiella; assay: standard in vitro agar dilution MIC (Table I), Klebsiella
[6] = system: Staph. aureus; assay: standard in vitro agar dilution MIC (Table I), Staph. aureus
[7] = system: Staph. epi; assay: Expanded Spectrum MIC (Table II), Staph. epi
Excerpt: as §1

[8] = system: Staph. aureus; assay: Expanded Spectrum MIC (Table II), Staph. aureus
Excerpt: as §1

[9] = system: H. influ.; assay: Expanded Spectrum MIC (Table II), H. influ.
Excerpt: as §1

[10] = system: Strep. D; assay: standard in vitro agar dilution MIC (Table I), Strep. D
[11] = system: E. coli; assay: standard in vitro agar dilution MIC (Table I), E. coli; details: Escherichia coli
[12] = Table I, agar dilution, strain EPI1, read-out: MIC
[13] = Klebsiella, Table I, agar dilution, strain X26, read-out: MIC
[14] = Klebsiella, Table I, agar dilution, strain X68, read-out: MIC
[15] = Staphylococcus aureus, strain V41, read-out: MIC
[16] = Staphylococcus aureus, strain X1.1, read-out: MIC
[17] = Staphylococcus aureus, strain X400, read-out: MIC
[18] = Table I, agar dilution, strain 222, read-out: MIC
[19] = Table I, agar dilution, strain C203, read-out: MIC

Measured: MIC

CC1=C(C(=O)O)N2C(=O)[C@@H](NC(=O)[C@H](N)c3ccccc3)[C@H]2SC1 [Cephalexin, reference compound]
8 µg/mL: [1] | [4]; strain 76 | [4]; strain C.L. | [5]; [14]
32 µg/mL: [1]; [12]
2 µg/mL: [3]; read-out: MIC
0.5 µg/mL: [2]
4 µg/mL: [5]; [13]

CC1=C(C(=O)O)N2C(=O)C(NC(=O)C(N)c3cc4c(s3)CCCC4)C2SC1 [Ex. 5, D-7-[(4,5,6,7-tetrahydro-2-benzothienyl)glycylamido]-3-methyl-3-cephem-4-carboxylic acid]
16 µg/mL: [6]; strain V41 | [4]; strain C.L. | [9]; strain 169 | [9]; strain 171 | [9]; strain 1930 | [9]; strain C.L. | [9]; strain HESS | [9]; strain R465
0.5 µg/mL: [1]; Table I, agar dilution, strain 222 | [7]; strain 219 | [7]; strain 270 | [8]; strain 239 | [8]; strain S224 | [8]; strain S225 | [8]; strain S226 | [8]; strain S227 | [8]; strain S228 | [8]; strain S230 | [8]; strain S237
0.06 µg/mL: [2]; Table I, agar dilution, strain C203
64 µg/mL: [6]; strain X400
8 µg/mL: [6]; strain S13E | [9]; strain 76
0.25 µg/mL: [6]; strain X1.1 | [3] | [7]; strain 286 | [8]; strain S231
4 µg/mL: [4]; strain 76 | [7]; strain EPI1 | [9]; strain 105 | [9]; strain 158 | [9]; strain 164 | [9]; strain 312 | [9]; strain 1683 | [9]; strain 4842 | [9]; strain M370 | [9]; strain M371
> 64 µg/mL: [9]; strain M366 | [9]; strain STEL
1 µg/mL: [7]; strain 285 | [8]; strain S229 | [8]; strain S234 | [8]; strain S238
2 µg/mL: [1]; Table I, agar dilution, strain EPI1 | [5]; Table I, agar dilution, strain X26 | [7]; strain 269

CC1=C(C(=O)O)N2C(=O)C(NC(=O)[C@@H](N)c3cc4c(Cl)cccc4s3)C2SC1 (stereo partly drawn) [Ex. 7B, L-7-(4-chloro-2-benzothienylglycylamido)-3-methyl-3-cephem-4-carboxylic acid]
32 µg/mL: [5]; [13]
4 µg/mL: [1]; [18] | [4]; strain 76, read-out: MIC
> 128 µg/mL: [10]; strain X66, read-out: MIC | [11]; strain EC14 | [11]; strain N10 | [11]; strain TEM | [5]; Klebsiella, Table I, agar dilution, strain KAE, read-out: MIC | [5]; [14]
64 µg/mL: [4]; strain C.L., read-out: MIC
8 µg/mL: [1]; [12]
0.5 µg/mL: [2]; [19]
2 µg/mL: [6]; [16] | [3]; read-out: MIC
128 µg/mL: [6]; [17] | [10]; strain 2041, read-out: MIC
16 µg/mL: [6]; [15]

COc1c([C@@H](N)C(=O)NC2C(=O)N3C(C(=O)O)=C(C)CSC23)sc2ccccc12 (stereo partly drawn) [Ex. 9A, D-7-(3-methoxy-2-benzothienylglycylamido)-3-methyl-3-cephem-4-carboxylic acid]
64 µg/mL: [6]; Staphylococcus aureus, strain S13E | [6]; [15] | [4]; strain C.L., read-out: MIC
32 µg/mL: [1]; [12] | [4]; strain 76, read-out: MIC | [5]; [13]
> 128 µg/mL: [6]; [17] | [10]; strain X66 | [11]; strain N10 | [11]; strain TEM | [5]; Klebsiella | [5]; Table I, agar dilution, strain X68
8 µg/mL: [1]; [18]
1 µg/mL: [2]; [19] | [7]; strain 269, read-out: MIC | [7]; strain 270, read-out: MIC | [8]; Staphylococcus aureus, strain S238, read-out: MIC
4 µg/mL: [6]; [16] | [3]; read-out: MIC | [7]; strain EPI1, read-out: MIC
0.25 µg/mL: [7]; strain 219, read-out: MIC | [7]; strain 286, read-out: MIC | [8]; Staphylococcus aureus, strain S224, read-out: MIC | [8]; Staphylococcus aureus, strain S225, read-out: MIC | [8]; Staphylococcus aureus, strain S227, read-out: MIC | [8]; Staphylococcus aureus, strain S228, read-out: MIC | [8]; Staphylococcus aureus, strain S230, read-out: MIC | [8]; Staphylococcus aureus, strain S231, read-out: MIC
0.5 µg/mL: [7]; strain 285, read-out: MIC | [8]; Staphylococcus aureus, strain 239, read-out: MIC | [8]; Staphylococcus aureus, strain S226, read-out: MIC | [8]; Staphylococcus aureus, strain S229, read-out: MIC | [8]; Staphylococcus aureus, strain S234, read-out: MIC | [8]; Staphylococcus aureus, strain S237, read-out: MIC
128 µg/mL: [10]; strain 2041 | [11]; strain EC14
